Measurements from US12404250B2, “PARP inhibitors for treating cancer and asthma” (Oregon Health & Science University, priority 2018, dated 2025).

Columns and labels:
PARP8 = target: T1, PARP8 (Homo sapiens, UniProt Q8N3A8); assay: In vitro IC50, immunoprecipitated GFP-PARP8 auto-MARylation; assay type: biochemical
T1 construct: expressed in transfected cells; host or cells: HEK 293T
T1 sequence (Q8N3A8 1-854): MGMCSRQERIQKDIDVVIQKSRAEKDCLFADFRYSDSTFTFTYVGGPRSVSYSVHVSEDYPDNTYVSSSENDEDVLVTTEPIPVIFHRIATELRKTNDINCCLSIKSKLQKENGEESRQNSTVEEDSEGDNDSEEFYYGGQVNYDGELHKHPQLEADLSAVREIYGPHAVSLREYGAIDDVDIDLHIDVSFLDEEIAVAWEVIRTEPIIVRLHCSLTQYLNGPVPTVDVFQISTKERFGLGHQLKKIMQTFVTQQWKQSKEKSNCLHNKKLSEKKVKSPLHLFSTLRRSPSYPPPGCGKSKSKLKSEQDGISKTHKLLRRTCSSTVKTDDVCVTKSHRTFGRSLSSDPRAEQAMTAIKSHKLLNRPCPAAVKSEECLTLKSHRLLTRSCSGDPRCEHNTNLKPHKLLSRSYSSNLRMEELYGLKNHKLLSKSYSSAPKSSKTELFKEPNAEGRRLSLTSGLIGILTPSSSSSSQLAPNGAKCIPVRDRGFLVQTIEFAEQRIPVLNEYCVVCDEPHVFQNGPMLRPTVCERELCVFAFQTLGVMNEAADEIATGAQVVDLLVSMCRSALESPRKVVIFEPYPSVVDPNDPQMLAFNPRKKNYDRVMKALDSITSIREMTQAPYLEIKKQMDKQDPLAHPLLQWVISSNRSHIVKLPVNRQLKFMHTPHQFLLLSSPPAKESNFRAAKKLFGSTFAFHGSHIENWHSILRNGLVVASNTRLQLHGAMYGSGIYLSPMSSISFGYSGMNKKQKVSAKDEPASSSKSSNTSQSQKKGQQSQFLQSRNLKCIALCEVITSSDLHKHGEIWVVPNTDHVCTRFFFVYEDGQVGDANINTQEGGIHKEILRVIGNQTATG
Method: Auto-MARylation was analyzed by Western blot with an ADP-ribose (ADPr) binding reagent (uncropped blots shown below).

PARP5 bcat = target: T2, PARP5 bcat (Homo sapiens, UniProt Q9H2K2); assay: In vitro IC50, PARP5bcat; assay type: biochemical; conditions: SEM from a minimum of three dose-response experiments
T2 construct: bcat
T2 sequence (Q9H2K2 959-1164): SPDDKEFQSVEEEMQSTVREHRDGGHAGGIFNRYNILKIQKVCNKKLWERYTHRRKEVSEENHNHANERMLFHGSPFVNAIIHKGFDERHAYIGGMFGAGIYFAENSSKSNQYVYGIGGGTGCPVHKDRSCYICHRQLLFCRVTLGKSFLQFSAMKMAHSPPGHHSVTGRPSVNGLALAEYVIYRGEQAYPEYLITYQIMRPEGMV

PARP10 = target: T3, PARP10 (Homo sapiens, UniProt Q53GL7); assay: GFP-PARP10 auto-MARylation in HEK 293T cells (Western blot); conditions: for Inhibition of PARP10 auto-MARylation in cells at 3 μM: HEK 293T cells transfected with GFP-PARP10, 3 μM for 3 h
T3 sequence (Q53GL7 1-1025): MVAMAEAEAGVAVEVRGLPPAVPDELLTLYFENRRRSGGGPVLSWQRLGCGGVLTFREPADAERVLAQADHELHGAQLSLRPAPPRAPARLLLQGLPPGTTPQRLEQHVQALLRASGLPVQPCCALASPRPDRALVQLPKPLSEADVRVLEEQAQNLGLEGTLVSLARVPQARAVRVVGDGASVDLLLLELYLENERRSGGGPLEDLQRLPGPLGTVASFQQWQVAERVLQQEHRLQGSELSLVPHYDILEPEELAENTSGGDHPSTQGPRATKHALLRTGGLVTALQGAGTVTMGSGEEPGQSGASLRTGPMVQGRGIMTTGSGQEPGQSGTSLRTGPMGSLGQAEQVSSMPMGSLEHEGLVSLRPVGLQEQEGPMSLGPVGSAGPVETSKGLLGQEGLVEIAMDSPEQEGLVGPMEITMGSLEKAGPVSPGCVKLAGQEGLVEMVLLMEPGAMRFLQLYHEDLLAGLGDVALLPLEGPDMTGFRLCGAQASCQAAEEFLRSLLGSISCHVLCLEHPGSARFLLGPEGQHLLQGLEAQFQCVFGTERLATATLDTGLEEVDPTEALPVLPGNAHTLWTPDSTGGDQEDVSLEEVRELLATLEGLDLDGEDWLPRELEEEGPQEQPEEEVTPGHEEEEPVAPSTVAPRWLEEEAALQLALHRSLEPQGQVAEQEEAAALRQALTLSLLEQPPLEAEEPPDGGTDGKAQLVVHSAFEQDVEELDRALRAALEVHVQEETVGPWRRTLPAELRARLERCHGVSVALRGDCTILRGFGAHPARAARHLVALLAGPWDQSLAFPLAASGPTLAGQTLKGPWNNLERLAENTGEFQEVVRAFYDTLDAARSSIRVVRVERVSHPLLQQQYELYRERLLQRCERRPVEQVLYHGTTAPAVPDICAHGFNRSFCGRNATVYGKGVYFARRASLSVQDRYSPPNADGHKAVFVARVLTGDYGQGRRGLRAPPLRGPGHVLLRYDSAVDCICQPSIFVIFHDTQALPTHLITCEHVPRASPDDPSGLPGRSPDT

PARP15 cat = target: T4, PARP15 cat (Homo sapiens, UniProt Q460N3); assay: In vitro IC50, PARP15 cat; assay type: biochemical; conditions: SEM from a minimum of three dose-response experiments
T4 construct: cat-wwe; cat
T4 sequence (Q460N3 482-678 limits assumed): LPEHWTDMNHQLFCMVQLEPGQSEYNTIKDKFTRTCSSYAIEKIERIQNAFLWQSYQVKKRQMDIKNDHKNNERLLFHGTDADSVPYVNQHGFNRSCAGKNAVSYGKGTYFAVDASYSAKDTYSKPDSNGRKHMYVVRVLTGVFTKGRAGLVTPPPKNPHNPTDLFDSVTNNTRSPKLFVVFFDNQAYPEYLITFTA

PARP7 = target: T5, PARP7 (Homo sapiens, UniProt Q7Z3E1); assay: In vitro IC50, PARP7; assay type: biochemical; conditions: SEM from a minimum of three dose-response experiments
T5 sequence (Q7Z3E1 1-657): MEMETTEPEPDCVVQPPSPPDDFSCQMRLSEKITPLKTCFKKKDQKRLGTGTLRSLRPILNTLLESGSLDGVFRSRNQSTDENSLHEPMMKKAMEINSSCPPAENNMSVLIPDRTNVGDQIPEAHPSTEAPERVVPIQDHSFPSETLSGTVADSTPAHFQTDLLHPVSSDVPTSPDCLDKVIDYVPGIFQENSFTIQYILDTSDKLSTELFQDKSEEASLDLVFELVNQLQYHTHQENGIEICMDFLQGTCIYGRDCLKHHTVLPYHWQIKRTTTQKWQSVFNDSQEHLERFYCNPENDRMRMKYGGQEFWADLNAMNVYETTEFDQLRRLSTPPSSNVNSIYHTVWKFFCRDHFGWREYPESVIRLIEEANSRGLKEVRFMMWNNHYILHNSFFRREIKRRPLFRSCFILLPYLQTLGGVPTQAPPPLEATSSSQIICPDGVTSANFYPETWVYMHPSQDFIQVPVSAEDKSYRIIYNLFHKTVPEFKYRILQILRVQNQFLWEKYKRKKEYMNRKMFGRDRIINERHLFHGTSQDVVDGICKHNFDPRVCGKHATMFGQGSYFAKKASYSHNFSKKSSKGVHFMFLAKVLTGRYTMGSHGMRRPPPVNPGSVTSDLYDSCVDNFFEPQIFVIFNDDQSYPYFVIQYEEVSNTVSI

Row | Structure (SMILES) | IC50 (PARP8) | IC50 (PARP5 bcat) | Inhibition of PARP10 auto-MARylation in cells at 3 μM (PARP10) | IC50 (PARP15 cat) | IC50 (PARP7) | Inhibition of PARP10 auto-MARylation in cells, dose response (PARP10; HEK 293T cells transfected with GFP-PARP10, increasing concentrations for 90 min)
1 | CC#Cc1ccc2c(=O)[nH]c(CSc3ncccn3)nc2c1C [ITK7, 8-methyl-7-(prop-1-yn-1-yl)-2-((pyrimidin-2-ylthio)methyl)quinazolin-4(3H)-one] | > 3 µM | > 30 µM | does not inhibit PARP10 | > 30 µM | 2.46 ± 0.5 µM | 
2 | CC#Cc1ccc2c(=O)[nH]c(CSc3ccc(C(=O)O)cc3)nc2c1C [ITK6, 4-(((8-methyl-4-oxo-7-(prop-1-yn-1-yl)-3,4-dihydroquinazolin-2-yl)methyl)thio) benzoic acid] | > 3 µM | > 30 µM | inhibits PARP10 auto-MARylation in cells | 0.496 ± 0.19 µM | 24.6 ± 0.5 µM | inhibits PARP10 auto-MARylation in cells in a dose dependent manner
